The record followed here is US9221766B2, “Compounds as diacylglycerol acyltransferase inhibitors” (GlaxoSmithKline LLC, priority 2012, dated 2015).

Some results are limits rather than exact numbers.

In this assay the target is T1, Human DGAT1 (Homo sapiens, UniProt O75907).
T1 construct: made in house; host or cells: Sf9 insect cells (baculovirus); microsomes used as enzyme
T1 sequence (O75907 1-488): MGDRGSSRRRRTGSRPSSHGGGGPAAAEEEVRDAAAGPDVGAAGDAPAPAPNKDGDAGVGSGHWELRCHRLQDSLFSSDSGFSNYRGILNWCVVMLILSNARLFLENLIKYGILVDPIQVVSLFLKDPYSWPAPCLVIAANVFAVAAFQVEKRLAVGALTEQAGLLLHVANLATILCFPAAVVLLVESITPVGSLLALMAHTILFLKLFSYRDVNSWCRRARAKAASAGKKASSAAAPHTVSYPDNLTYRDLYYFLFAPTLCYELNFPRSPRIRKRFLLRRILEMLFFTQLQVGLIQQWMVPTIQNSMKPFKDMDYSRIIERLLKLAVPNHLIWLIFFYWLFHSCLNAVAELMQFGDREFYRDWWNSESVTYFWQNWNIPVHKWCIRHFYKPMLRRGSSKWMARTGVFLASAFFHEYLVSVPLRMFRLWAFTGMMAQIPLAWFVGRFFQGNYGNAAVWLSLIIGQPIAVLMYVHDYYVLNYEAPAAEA
As to the kind of experiment: human DGAT1 lipid extraction (LE) assay, inhibition of triacylglycerol product formation. Format: biochemical. The following applies: human DGAT1 microsomes from Sf9 cells, read-out: hDGAT LE IC50. The protocol:
Human DGAT1 was expressed in Sf9 insect cells using a baculovirus expression system. Microsomes were prepared and used as enzyme for in vitro inhibition testing in either of two formats measuring production of coenzyme A or tridecanoylglycerol product, respectively. All steps were performed at 21-23° C. All data for DGAT1 inhibition by test compounds were collected under conditions where product formation was linear with reaction time.
For inhibition of triacylglycerol product formation, 11 uL reactions were run in white Polyplate-384 (PerkinElmer6007300) starting with a 30 minute pre-reaction incubation of 5 uL of 2.2× enzyme and 1 uL of 100% DMSO containing test compound or control compound, {4-[4-(4-amino-7,7-dimethyl-7H-pyrimido[4,5-b][1,4]oxazin-6-yl)phenyl]cyclohexyl}acetic acid. Some assays were performed with inclusion of didecanoylglycerol in the pre-reaction incubation of test compounds and enzyme. Reactions were initiated after 30 minute pre-reaction incubation via addition of 5 uL of 2.2× substrate. Final reaction conditions consisted of 50 mM HEPES pH 7.5, 2 mM MgCl2, 1 mM CHAPS, 25 uM didecanoylglycerol, 0.5 uM decanoyl-CoA, 0.3 nCi/uL [^14C-]decanoyl-CoA or 0.5 nCi/uL [^3H]-decanoyl-CoA, 0.05-4 ug/mL microsomal protein, and 1% DMSO. Following 60 minute reaction incubation, reactions were stopped with 40 uL of 45% isopropanol and 50 mM sodium carbonate in water and mixed. Extraction of tridecanoylglycerol product was accomplished via addition of 30 uL Microscint-E (Perkin Elmer) and 2 hours of incubation (sealed). Plates were read on a Microbeta Microplate reader Inhibition was normalized to controls containing DMSO or 10 uM {4-[4-(4-amino-7,7-dimethyl-7H-pyrimido[4,5-b][1,4]oxazin-6-yl)phenyl]cyclohexyl}acetic acid. IC50s were fitted using GraphPad Prism to a sigmoidal dose response.

Take `O=C(O)CC1(CC(F)(F)F)CCc2cc(-c3ccc(Nc4ccc(Cl)cc4)cn3)ccc2C1=O` (single isomer, unassigned) [Example 6, 2-(6-(5-(4-chlorophenylamino)pyridin-2-yl)-1-oxo-2-(2,2,2-trifluoroethyl)-1,2,3,4-tetrahydronaphthalen-2-yl)acetic acid]: the IC50 is not above 100 nM.

As to `O=C(O)CC1(CC(F)(F)F)CCc2cc(-c3ccc(Nc4ccc(C(F)(F)F)nc4)nn3)ccc2C1=O` (single isomer, unassigned) [Example 24, 2-(1-oxo-2-(2,2,2-trifluoroethyl)-6-(6-(6-(trifluoromethyl)pyridin-3-ylamino)pyridazin-3-yl)-1,2,3,4-tetrahydronaphthalen-2-yl)acetic acid], the IC50 lay in the range of 500 to 10000 nM.

As to `O=C(O)CC1(CC(F)(F)F)CCc2cc(-c3ccc(Nc4ccc(Cl)cn4)cn3)ccc2C1=O` (single isomer, unassigned) [Example 7, 2-(6-(5-(5-chloropyridin-2-ylamino)pyridin-2-yl)-1-oxo-2-(2,2,2-trifluoroethyl)-1,2,3,4-tetrahydronaphthalen-2-yl)acetic acid], the IC50 was not above 100 nM.

As for `Cc1ccc(Nc2ccc(-c3ccc4c(c3)CCC(CC(=O)O)(CC(F)(F)F)C4=O)nc2)nc1` (single isomer, unassigned) [Example 12, 2-(6-(5-(5-methylpyridin-2-ylamino)pyridin-2-yl)-1-oxo-2-(2,2,2-trifluoroethyl)-1,2,3,4-tetrahydronaphthalen-2-yl)acetic acid], the IC50 was not above 100 nM.

On to `O=C(O)CC1(CC(F)(F)F)CCc2cc(-c3cnc(Nc4ccc(C(F)(F)F)nc4)cn3)ccc2C1=O` (single isomer, unassigned) [Example 14, 2-(1-Oxo-2-(2,2,2-trifluoroethyl)-6-(5-(6-(trifluoromethyl)pyridin-3-ylamino)pyrazin-2-yl)-1,2,3,4-tetrahydro-naphthalen-2-yl)acetic acid], for which the IC50 is not above 100 nM.

Take `O=C(O)CC1(CC(F)(F)F)CCc2cc(-c3cnc(Nc4ccc(C(F)(F)F)nc4)s3)ccc2C1=O` (single isomer, unassigned) [Example 27, 2-(1-oxo-2-(2,2,2-trifluoroethyl)-6-(2-(6-(trifluoromethyl)pyridin-3-ylamino)thiazol-5-yl)-1,2,3,4-tetrahydronaphthalen-2-yl)acetic acid]: the IC50 is 100 to 500 nM.

In the case of `Cc1cnc(Nc2ccc(-c3ccc4c(c3)CCC(CC(=O)O)(CC(F)(F)F)C4=O)nn2)s1` (single isomer, unassigned) [Example 25, 2-(6-(6-(5-methylthiazol-2-ylamino)pyridazin-3-yl)-1-oxo-2-(2,2,2-trifluoroethyl)-1,2,3,4-tetrahydronaphthalen-2-yl)acetic acid], the IC50 was in the range of 500 to 10000 nM.

Turning to `CCC1(CC(=O)O)CCc2cc(-c3ccc(Nc4ccc(C(F)(F)F)nc4)cn3)ccc2C1=O` (single isomer, unassigned) [Example 5, 2-(2-ethyl-1-oxo-6-(5-(6-(trifluoromethyl)pyridin-3-ylamino)pyridin-2-yl)-1,2,3,4-tetrahydronaphthalen-2-yl)acetic acid], the IC50 fell in the range of 100 to 500 nM.

In the case of `O=C(O)CC1(CC(F)(F)F)CCc2cc(-c3ccc(Nc4ccc(Cl)cn4)cn3)ccc2C1=O` (single isomer, unassigned) [Example 8, 2-(6-(5-(5-chloropyridin-2-ylamino)pyridin-2-yl)-1-oxo-2-(2,2,2-trifluoroethyl)-1,2,3,4-tetrahydronaphthalen-2-yl)acetic acid], the IC50 is not above 100 nM.

What is called IC50 is the point on the concentration scale where inhibition reaches its midpoint.
